Measured values as given in the supplement of paper PMC10307832.

Tests used:
Test in all cases: relative viability (nuclei count vs DMSO), 5 days (fraction); higher = more cells survive
[1] = compound: Nc1ccccc1NC(=O)c1ccc(CNC(=O)OCc2cccnc2)cc1 [Entinostat] + Cc1nc(NC(=O)N2CCC[C@H]2C(N)=O)sc1-c1ccnc(C(C)(C)C(F)(F)F)c1 [Alpelisib] (partner 2 µM)
In short: (§1)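 Each reported value is a median over duplicate plates. It expresses relative viability: treated-well nuclei count divided by vehicle-well nuclei count. Lung cancer cell lines in 1536-well plates were dosed by pin tool a day after seeding, alone with one drug or with a fixed anchor-drug dose plus five library-drug doses (not always all listed) in √10 steps, and nuclei were counted after 5 days.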

[2] = compound: Nc1ccccc1NC(=O)c1ccc(CNC(=O)OCc2cccnc2)cc1 [Entinostat] + C[C@@H](Oc1cc(-c2cnn(C3CCNCC3)c2)cnc1N)c1c(Cl)ccc(F)c1Cl [Crizotinib] (partner 1 µM)
In short: as §1

[3] = compound: Nc1ccccc1NC(=O)c1ccc(CNC(=O)OCc2cccnc2)cc1 [Entinostat] + COc1cccc2cc(-c3nc([C@H]4CC[C@H](C(=O)O)CC4)n4ncnc(N)c34)[nH]c12 [OSI-027] (partner 0.5 µM)
In short: as §1

[4] = compound: Nc1ccccc1NC(=O)c1ccc(CNC(=O)OCc2cccnc2)cc1 [Entinostat] + COc1cc2c(Oc3ccc(NC(=O)C4(C(=O)Nc5ccc(F)cc5)CC4)cc3F)ccnc2cc1OCCCN1CCOCC1 [Foretinib] (partner 0.25 µM)
In short: as §1

Cell Line: H3255
- relative viability ([1]; first compound 0.02 µM): 0.637
- relative viability ([1]; first compound 0.06325 µM): 0.594
- relative viability ([1]; first compound 0.2 µM): 0.548
- relative viability ([1]; first compound 0.6325 µM): 0.363
- relative viability ([1]; first compound 2 µM): 0.289
- relative viability ([2]; first compound 0.02 µM): 0.9
- relative viability ([2]; first compound 0.06325 µM): 0.747
- relative viability ([2]; first compound 0.2 µM): 0.777
- relative viability ([2]; first compound 0.6325 µM): 0.452
- relative viability ([2]; first compound 2 µM): 0.286
- relative viability ([3]; first compound 0.02 µM): 0.589
- relative viability ([3]; first compound 0.06325 µM): 0.582
- relative viability ([3]; first compound 0.2 µM): 0.503
- relative viability ([3]; first compound 0.6325 µM): 0.309
- relative viability ([3]; first compound 2 µM): 0.232
- relative viability ([4]; first compound 0.02 µM): 0.889
- relative viability ([4]; first compound 0.06325 µM): 0.89
- relative viability ([4]; first compound 0.2 µM): 0.639
- relative viability ([4]; first compound 0.6325 µM): 0.567
- relative viability ([4]; first compound 2 µM): 0.381

Cell Line: HARA
- relative viability ([1]; first compound 0.02 µM): 0.819
- relative viability ([1]; first compound 0.06325 µM): 0.861
- relative viability ([1]; first compound 0.2 µM): 0.658
- relative viability ([1]; first compound 0.6325 µM): 0.582
- relative viability ([1]; first compound 2 µM): 0.484
- relative viability ([2]; first compound 0.02 µM): 1.02
- relative viability ([2]; first compound 0.06325 µM): 1.02
- relative viability ([2]; first compound 0.2 µM): 1.05
- relative viability ([2]; first compound 0.6325 µM): 0.974
- relative viability ([2]; first compound 2 µM): 0.565
- relative viability ([3]; first compound 0.02 µM): 0.448
- relative viability ([3]; first compound 0.06325 µM): 0.529
- relative viability ([3]; first compound 0.2 µM): 0.551
- relative viability ([3]; first compound 0.6325 µM): 0.299
- relative viability ([3]; first compound 2 µM): 0.194
- relative viability ([4]; first compound 0.02 µM): 0.903
- relative viability ([4]; first compound 0.06325 µM): 0.913
- relative viability ([4]; first compound 0.2 µM): 1.01
- relative viability ([4]; first compound 0.6325 µM): 0.341
- relative viability ([4]; first compound 2 µM): 0.416

Cell Line: HCC-15
- relative viability ([1]; first compound 0.02 µM): 0.86
- relative viability ([1]; first compound 0.06325 µM): 0.919
- relative viability ([1]; first compound 0.2 µM): 0.705
- relative viability ([1]; first compound 0.6325 µM): 0.488
- relative viability ([1]; first compound 2 µM): 0.243
- relative viability ([2]; first compound 0.02 µM): 0.792
- relative viability ([2]; first compound 0.06325 µM): 0.744
- relative viability ([2]; first compound 0.2 µM): 0.745
- relative viability ([2]; first compound 0.6325 µM): 0.548
- relative viability ([2]; first compound 2 µM): 0.307
- relative viability ([3]; first compound 0.02 µM): 0.669
- relative viability ([3]; first compound 0.06325 µM): 0.617
- relative viability ([3]; first compound 0.2 µM): 0.583
- relative viability ([3]; first compound 0.6325 µM): 0.347
- relative viability ([3]; first compound 2 µM): 0.239
- relative viability ([4]; first compound 0.02 µM): 0.984
- relative viability ([4]; first compound 0.06325 µM): 0.886
- relative viability ([4]; first compound 0.2 µM): 0.802
- relative viability ([4]; first compound 0.6325 µM): 0.592
- relative viability ([4]; first compound 2 µM): 0.331

Cell Line: HCC-44
- relative viability ([1]; first compound 0.02 µM): 0.778
- relative viability ([1]; first compound 0.06325 µM): 0.588
- relative viability ([1]; first compound 0.2 µM): 0.46
- relative viability ([1]; first compound 0.6325 µM): 0.329
- relative viability ([1]; first compound 2 µM): 0.187
- relative viability ([2]; first compound 0.02 µM): 0.773
- relative viability ([2]; first compound 0.06325 µM): 0.614
- relative viability ([2]; first compound 0.2 µM): 0.453
- relative viability ([2]; first compound 0.6325 µM): 0.339
- relative viability ([2]; first compound 2 µM): 0.22
- relative viability ([3]; first compound 0.02 µM): 0.53
- relative viability ([3]; first compound 0.06325 µM): 0.518
- relative viability ([3]; first compound 0.2 µM): 0.333
- relative viability ([3]; first compound 0.6325 µM): 0.182
- relative viability ([3]; first compound 2 µM): 0.176

Cell Line: HCC-78
- relative viability ([1]; first compound 0.02 µM): 0.342
- relative viability ([1]; first compound 0.06325 µM): 0.32
- relative viability ([1]; first compound 0.2 µM): 0.238
- relative viability ([1]; first compound 0.6325 µM): 0.133
- relative viability ([1]; first compound 2 µM): 0.104
- relative viability ([2]; first compound 0.02 µM): 0.37
- relative viability ([2]; first compound 0.06325 µM): 0.293
- relative viability ([2]; first compound 0.2 µM): 0.234
- relative viability ([2]; first compound 0.6325 µM): 0.163
- relative viability ([2]; first compound 2 µM): 0.141
- relative viability ([3]; first compound 0.02 µM): 0.402
- relative viability ([3]; first compound 0.06325 µM): 0.33
- relative viability ([3]; first compound 0.2 µM): 0.351
- relative viability ([3]; first compound 0.6325 µM): 0.344
- relative viability ([3]; first compound 2 µM): 0.261
- relative viability ([4]; first compound 0.02 µM): 0.559
- relative viability ([4]; first compound 0.06325 µM): 0.479
- relative viability ([4]; first compound 0.2 µM): 0.39
- relative viability ([4]; first compound 0.6325 µM): 0.297
- relative viability ([4]; first compound 2 µM): 0.264

Cell Line: HCC-366
- relative viability ([1]; first compound 0.02 µM): 0.537
- relative viability ([1]; first compound 0.06325 µM): 0.521
- relative viability ([1]; first compound 0.2 µM): 0.43
- relative viability ([1]; first compound 0.6325 µM): 0.327
- relative viability ([1]; first compound 2 µM): 0.0475
- relative viability ([2]; first compound 0.02 µM): 0.447
- relative viability ([2]; first compound 0.06325 µM): 0.407
- relative viability ([2]; first compound 0.2 µM): 0.283
- relative viability ([2]; first compound 0.6325 µM): 0.0613
- relative viability ([2]; first compound 2 µM): 0.0249
- relative viability ([3]; first compound 0.02 µM): 0.922
- relative viability ([3]; first compound 0.06325 µM): 0.972
- relative viability ([3]; first compound 0.2 µM): 0.854
- relative viability ([3]; first compound 0.6325 µM): 0.214
- relative viability ([3]; first compound 2 µM): 0.0783
- relative viability ([4]; first compound 0.02 µM): 0.994
- relative viability ([4]; first compound 0.06325 µM): 0.992
- relative viability ([4]; first compound 0.2 µM): 0.685
- relative viability ([4]; first compound 0.6325 µM): 0.265
- relative viability ([4]; first compound 2 µM): 0.0997

Cell Line: IA-LM
- relative viability ([1]; first compound 0.02 µM): 0.706
- relative viability ([1]; first compound 0.06325 µM): 0.741
- relative viability ([1]; first compound 0.2 µM): 0.98
- relative viability ([1]; first compound 0.6325 µM): 0.566
- relative viability ([1]; first compound 2 µM): 0.481
- relative viability ([2]; first compound 0.02 µM): 0.731
- relative viability ([2]; first compound 0.06325 µM): 0.855
- relative viability ([2]; first compound 0.2 µM): 0.928
- relative viability ([2]; first compound 0.6325 µM): 0.728
- relative viability ([2]; first compound 2 µM): 0.651
- relative viability ([4]; first compound 0.02 µM): 1.13
- relative viability ([4]; first compound 0.06325 µM): 1.22
- relative viability ([4]; first compound 0.2 µM): 1.43
- relative viability ([4]; first compound 0.6325 µM): 1.05
- relative viability ([4]; first compound 2 µM): 0.764
